In brackets after ≈: the same amount, converted by molar mass.
Legend:
[1] = in vivo; cited from earlier work
[2] = Aqueous solubility of raltegravir at given pH; format: physicochemical
Excerpt: In one embodiment of the invention, the drug is raltegravir or pharmaceutically acceptable salt thereof. Raltegravir (N-(4-fluorobenzyl)-5-hydroxy-1-methyl-2-(1-methyl-1-{[(5-methyl-1,3,4-oxadiazol-2-yl)carbonyl]amino}ethyl)-6-oxo-1,6-dihydropyrimidine-4-carboxamide) belongs to a novel class of anti-retroviral drugs indicated for the treatment of human immunodeficiency virus (HIV-1) known as integrase strand inhibitors. See, e.g., U.S. Pat. No. 7,169,780. More particularly preferred is the anhydrous crystalline potassium salt of raltegravir, which is characterized by an X-ray powder diffraction pattern obtained using copper Kα radiation which comprises 2Θ values in degrees of 5.9, 20.0 and 20.6. See U.S. Pat. No. 7,754,731, herein incorporated by reference in its entirety. This form of raltegravir is the active pharmaceutical ingredient (API) in […]® tablets.

For Cc1nnc(C(=O)NC(C)(C)c2nc(C(=O)NCc3ccc(F)cc3)c(O)c(=O)n2C)o1 [Raltegravir, N-(4-fluorobenzyl)-5-hydroxy-1-methyl-2-(1-methyl-1-{[(5-methyl-1,3,4-oxadiazol-2-yl)carbonyl]amino}ethyl)-6-oxo-1,6-dihydropyrimidine-4-carboxamide], the terminal half-life [1] is listed as “approximately 9 hours”, the α-phase half-life [1] is listed as “approximately 1 hour” and the solubility ([2]; aqueous buffer, pH range of 1-6) is listed as 20 µg/mL (≈ 45 µM). The solubility ([2]; pH 6.8, aqueous buffer) was 480 µg/mL (≈ 1080 µM).

Source: patent publication US20160000721A1, “GASTRO-RETENTIVE FORMULATIONS” (priority 2012, published 2016)
